According to paper PMC12444472, “BCI inhibits MKP3 by targeting the kinase-binding domain and disrupting ERK2 interaction” (The Journal of Biological Chemistry, 2025):
Residue numbers refer to the chain shown, from its start.

Columns and labels:
Assay type in all cases: biochemical
MKP3^FL = molecular target: T1, MKP3^FL (Homo sapiens, UniProt Q16828); experiment: Phosphatase activity toward pNPP in the presence of ERK2
T1 construct: MKP3(1–381) (MKP3^FL); made in house; host or cells: Escherichia coli BL21(DE3)
T1 sequence (Q16828 1-381): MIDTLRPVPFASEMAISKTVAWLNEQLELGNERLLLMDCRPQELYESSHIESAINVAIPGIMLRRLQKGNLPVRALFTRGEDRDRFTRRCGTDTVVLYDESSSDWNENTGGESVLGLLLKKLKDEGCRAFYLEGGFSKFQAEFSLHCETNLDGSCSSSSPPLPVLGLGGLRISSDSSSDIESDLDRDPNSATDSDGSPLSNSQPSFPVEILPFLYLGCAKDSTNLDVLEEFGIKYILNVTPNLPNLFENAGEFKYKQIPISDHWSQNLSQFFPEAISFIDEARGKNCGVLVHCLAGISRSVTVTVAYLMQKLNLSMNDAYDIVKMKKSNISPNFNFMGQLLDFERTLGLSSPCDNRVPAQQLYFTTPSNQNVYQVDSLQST
Protocol: (§1) The phosphatase activity of MKP3 toward pNPP was measured using continuous spectrophotometric assays, either in the absence or the presence of ERK2 at a 1:1 M ratio with MKP3. Experiments were conducted at 25 °C in a reaction mixture with a total volume of 1.8 ml, containing 50 mM Mops (pH 7.0), 100 mM NaCl, and 0.1 mM EDTA. MKP3 (1 μM) was preincubated with varying concentrations of the inhibitor BCI for 5 min before initiating the reaction by adding pNPP at concentrations ranging from 0 to 14 mM. Continuous absorbance changes were recorded using a PerkinElmer LAMBDA 45 spectrophotometer equipped with a magnetic stirrer in the cuvette holder. The production of p-nitrophenol was monitored at 410 nm using an extinction coefficient of 18,000 M^-1 cm^-1.
Stock solutions of BCI (dissolved in DMSO) at different concentrations were prepared to maintain a constant DMSO concentration across all BCI concentrations in the phosphatase inhibition assays, thereby eliminating potential effects of varying DMSO levels on detection. Initial reaction rates were determined from the linear slope of progress curves, and the data were analyzed using nonlinear regression. Kinetic parameters (kcat and Km) were obtained by fitting the data to the Michaelis–Menten equation: v0 = kcat[E][S]/(Km + [S]). […]

MKP3 E81G = molecular target: T2, MKP3 E81G (Homo sapiens, UniProt Q16828, E81G); experiment: Phosphatase activity of MKP3 mutant toward pNPP with ERK2; settings: 1 µM enzyme, 1 µM ERK2, 8 mM pNPP, 2.5 μM BCI
T2 construct: MKP3(1–381) (MKP3^FL); made in house; host or cells: Escherichia coli BL21(DE3)
T2 sequence (Q16828 1-381 E81G): T1 sequence (Q16828 1-381) with E81G
Protocol: as §1
(§2) Figure S2. Inhibition of full-length MKP3 mutant activity by BCI. The phosphatase activities (v0) of full-length MKP3 and its mutants (E81G, R83G, R85G, R87G, and R89A) at 1 µM concentration were measured using continuous spectrophotometric assays with 8 mM pNPP as the substrate, in the presence of ERK2 (1 µM), either without or with 2.5 μM BCI. Data are presented as mean ± SD (n = 3). Reactions were performed at 25 °C in a total volume of 1.8 mL, in a buffer containing 50 mM MOPS (pH 7.0), 100 mM NaCl, and 0.1 mM EDTA.

MKP3 R85G = molecular target: T3, MKP3 R85G (Homo sapiens, UniProt Q16828, R85G); experiment: as above; settings: 1 µM enzyme, 1 µM ERK2, 8 mM pNPP, 2.5 μM BCI
T3 construct: MKP3(1–381) (MKP3^FL); made in house; host or cells: Escherichia coli BL21(DE3)
T3 sequence (Q16828 1-381 R85G): T1 sequence (Q16828 1-381) with R85G
Protocol: as §1, §2

MKP3 T87G = molecular target: T4, MKP3 T87G (Homo sapiens, UniProt Q16828, T87G); experiment: as above; settings: 1 µM enzyme, 1 µM ERK2, 8 mM pNPP, 2.5 μM BCI
T4 construct: MKP3(1–381) (MKP3^FL); made in house; host or cells: Escherichia coli BL21(DE3)
T4 sequence (Q16828 1-381 T87G): T1 sequence (Q16828 1-381) with T87G
Protocol: as §1, §2

O=C1/C(=C/c2ccccc2)C(NC2CCCCC2)c2ccccc21 (centres unmarked) [BCI, (E)-2-benzylidene-3-(cyclohexylamino)-2,3-dihydro-1H-inden-1-one]
ERK2-induced MKP3 activity relative to its initial level (MKP3^FL; BCI at molar concentration 20 times that of ERK2): one-seventh
effect on MKP3's Michaelis constant (Km) for pNPP (MKP3^FL; ERK2 at 1:1 with MKP3^FL): did not significantly alter
enzymatic activity upon BCI addition compared with MKP3^WT (MKP3 E81G): higher enzymatic activity than WT MKP3
enzymatic activity upon BCI addition compared with MKP3^WT (MKP3 R85G): BCI inhibition comparable to MKP3^WT
enzymatic activity upon BCI addition compared with MKP3^WT (MKP3 T87G): BCI inhibition comparable to MKP3^WT
